Legend:
K. pneumoniae = assay: Polymyxin test: colorimetric detection of growth (glucose metabolization, phenol red) in presence of colistin sulphate; assay type: cell-based, Klebsiella pneumoniae; set-up: key: +, yellow; -, orange; conditions: colistin sulphate 3.75 mg/L final, visual colour change, up to 4 h at 37°C
Method: (§1) Each inoculum was prepared by mixing 1 öse (10 µl) of a fresh culture of the tested bacteria in 5 ml of sterile NaCl 0.85% (at a density of 3 Mac Farland, i.e. about 10^9 CFU/ml).
(§2) 250 ml of reactive medium was prepared by mixing the compounds hereafter: • a broth powder of a non selective growth medium for bacteria, the Cation-Adjusted Mueller-Hinton broth (MHB-CA) : 6.25 g • a colour indicator, the phenol red : 0.0125 g • sterile distilled water 225 ml • sterile D (+)-glucose (10 %) anhydrous (sterilization by filtration) : 25 ml
(§3) The pH of the final reactive medium was adjusted to 6.6 and 6.7 with HCl 1M.
(§4) Colistin or polymyxin B was added or not at the concentration of 5 mg/L in the reactive medium. Standard colistin sulphate and polymyxin B were from Sigma Aldrich (Saint-Louis, France). Those antibiotic molecule powders were kept at 4°C before their use, whereas polymyxin dilutions were kept at -20°C.
(§5) For each strain, two wells of a plastic sterile plate with 96 shaped wells were inoculated in parallel with and without polymyxin (colistin sulphate or polymyxin B) in order to compare their colour change.
(§6) Plastic sterile plates were from Sarstedt (Nümbrecht, Germany). The tray may be prepared as follows : • 1. 150 µl of reactive medium colistin free (obtained in 1.) in the first line • 2. 150 µl of reactive medium with 5 mg/l of colistin sulphate in the second line (final concentration = 3.75 mg/l) • 3. 50 µl of NaCl alone in the first column (one well colistin-free and one well with colistin sulphate) (medium control) • 4. 50 µl of the bacterial suspension (obtained in 2.) for the control strains and for every strain in the other column (one well colistin-free and one well with colistin)
(§7) After mixing of the bacterial suspension to the reactive medium by pipetting up and down, the final concentration of bacteria was 2.5.10^8 CFU/ml in each well and the final selective concentration of colistin or polymyxin B in the well with polymyxin was 3.75 mg/L.
(§8) The results of the tests were recorded at 10 min (checking for no spontaneous colour change in the well) and then every hour for a maximum of 4 hours by visual inspection. No colour change of the well with colistin sulphate or polymyxin B indicated susceptibility to colistin sulphate or polymyxin B and negativity of those tests. On the contrary, a colour change (orange to yellow) indicates the positivity of the test meaning growth capability (related to glucose metabolism) in presence of colistin sulphate or polymyxin B, i.e. resistance to colistin sulphate or polymyxin B.
(§9) All experiments were repeated in triplicate.

M. morganii = assay: MIC determination, broth microdilution in Cation-Adjusted Mueller-Hinton broth (CLSI); assay type: cell-based; conditions: strain Mmor
Method: (§10) Determination of MIC values were performed using the reference technique (broth microdilution in Cation-Adjusted Mueller-Hinton broth) according to the CLSI guidelines. Polymyxin B and colistin (Sigma-Aldrich, Saint-Louis) were tested over a range dilution from 0.12 to 128 µg/ml and 5.10^5 CFU/ml of bacteria in each well was used. Following the EUCAST breakpoints (http://www.eucast.org/), strains with a colistin MICs of ≤ 2 µg/ml were categorized as susceptible, although those with MICs of > 2 µg/ml were resistant.
as §9

C. freundii [1] = assay: as above; assay type: cell-based; conditions: for Colistin resistance: EUCAST breakpoints
Method: as §10, §9

P. stuartii = assay: as above; assay type: cell-based; conditions: strain Pstu
Method: as §10, §9

E. aerogenes [2] = assay: as above; assay type: cell-based; conditions: strain 6 FR
Method: as §10, §9

E. cloacae = assay: as above; assay type: cell-based; conditions: for Colistin resistance: EUCAST breakpoints
Method: as §10, §9

H. alvei [3] = assay: as above; assay type: cell-based; conditions: strain ER
Method: as §10, §9

K. oxytoca [4] = assay: as above; assay type: cell-based; conditions: strain C24
Method: as §10, §9

S. marcescens [5] = assay: as above; assay type: cell-based, Serratia marcescens; conditions: strain Smar
Method: as §10, §9

P. mirabilis = assay: as above; assay type: cell-based, Proteus mirabilis; conditions: strain Pmir
Method: as §10, §9

C. freundii [6] = assay: Polymyxin test: colorimetric detection of growth (glucose metabolization, phenol red) in presence of colistin sulphate; assay type: cell-based; set-up: key: +, yellow; -, orange; conditions: colistin sulphate 3.75 mg/L final, visual colour change, up to 4 h at 37°C
Method: as §1, §2, §3, §4, §5, §6, §7, §8, §9

E. aerogenes [7] = assay: as above; assay type: cell-based; set-up: key: +, yellow; -, orange; conditions: strain 6 FR; colistin sulphate 3.75 mg/L final; visual colour change, up to 4 h at 37°C
Method: as §1, §2, §3, §4, §5, §6, §7, §8, §9

H. alvei [8] = assay: as above; assay type: cell-based; set-up: key: +, yellow; -, orange; conditions: strain ER; colistin sulphate 3.75 mg/L final; visual colour change, up to 4 h at 37°C
Method: as §1, §2, §3, §4, §5, §6, §7, §8, §9

K. oxytoca [9] = assay: as above; assay type: cell-based; set-up: key: +, yellow; -, orange; conditions: strain C24; colistin sulphate 3.75 mg/L final; visual colour change, up to 4 h at 37°C
Method: as §1, §2, §3, §4, §5, §6, §7, §8, §9

S. marcescens [10] = assay: as above; assay type: cell-based, Serratia marcescens; set-up: key: +, yellow; -, orange; conditions: strain Smar; colistin sulphate 3.75 mg/L final; visual colour change, up to 4 h at 37°C
Method: as §1, §2, §3, §4, §5
Plastic sterile plates were from Sarstedt (Nümbrecht, Germany). The tray may be prepared as follows : • 1. […]
The results of the tests were recorded at 10 min (checking for no spontaneous colour change in the well) and then every hour for a maximum of 4 hours by visual inspection. […]

colistin sulphate was tested, and the “Results of the method of the invention” value (K. pneumoniae; strain 1 FR) was “-”, the “Results of the method of the invention” value (K. pneumoniae; strain 2 FR) was “-” and the “Results of the method of the invention” value (K. pneumoniae; strain 4 FR) was “-”. For the same substance, the “Results of the method of the invention” value (K. pneumoniae; strain 9 FR) was “-”, the “Results of the method of the invention” value (K. pneumoniae; strain 11 FR) was “+” and the “Results of the method of the invention” value (K. pneumoniae; strain 75b) was “+”. For the same substance, the “Results of the method of the invention” value (K. pneumoniae; strain AF1b) was “+”, the “Results of the method of the invention” value (K. pneumoniae; strain C23) was “+” and the “Results of the method of the invention” value (K. pneumoniae; strain C25) was “+”. The “Results of the method of the invention” value (K. pneumoniae; strain C26) was “+”, the “Results of the method of the invention” value (K. pneumoniae; strain C27) was “+” and the “Results of the method of the invention” value (K. pneumoniae; strain C112) was “-”. For the same substance, the “Results of the method of the invention” value (K. pneumoniae; strain C115) was “-”, the “Results of the method of the invention” value (K. pneumoniae; strain C130) was “-” and the “Results of the method of the invention” value (K. pneumoniae; strain C132) was “-”. For the same substance, the “Results of the method of the invention” value (K. pneumoniae; strain T1b) was “+”, the Colistin resistance (M. morganii; EUCAST breakpoints) was “+ (those with MICs of > 2 µg/ml were resistant)” and the “Colistin MIC” value (M. morganii; Natural resistance) was >128 µg/mL. The “Colistin MIC” value (C. freundii [1]; strain 8 FR) was 0.12 µg/mL, the Colistin resistance (C. freundii [1]; strain 8 FR) was “- (strains with a colistin MICs of ≤ 2 µg/ml were categorized as susceptible)” and the “Colistin MIC” value (C. freundii [1]; strain C136) was 0.12 µg/mL. The Colistin resistance (C. freundii [1]; strain C136) was “- (strains with a colistin MICs of ≤ 2 µg/ml were categorized as susceptible)”, the Colistin resistance (P. stuartii; EUCAST breakpoints) was “+ (those with MICs of > 2 µg/ml were resistant)” and the “Colistin MIC” value (P. stuartii; Natural resistance) was >128 µg/mL. For the same substance, the “Colistin MIC” value (E. aerogenes [2]) was 0.12 µg/mL, the Colistin resistance (E. aerogenes [2]; EUCAST breakpoints) was “- (strains with a colistin MICs of ≤ 2 µg/ml were categorized as susceptible)” and the “Colistin MIC” value (E. cloacae; strain 7 FR) was 0.12 µg/mL. The Colistin resistance (E. cloacae; strain 7 FR) was “- (strains with a colistin MICs of ≤ 2 µg/ml were categorized as susceptible)”, the Colistin resistance (E. cloacae; strain C28) was “+ (those with MICs of > 2 µg/ml were resistant)” and the “Colistin MIC” value (E. cloacae; strain C28, resistance mechanism Unknown) was 32 µg/mL. For the same substance, the “Colistin MIC” value (E. cloacae; strain C129) was 0.25 µg/mL, the Colistin resistance (E. cloacae; strain C129) was “- (strains with a colistin MICs of ≤ 2 µg/ml were categorized as susceptible)” and the “Colistin MIC” value (E. cloacae; strain C144) was 0.25 µg/mL. For the same substance, the Colistin resistance (E. cloacae; strain C144) was “- (strains with a colistin MICs of ≤ 2 µg/ml were categorized as susceptible)”, the Colistin resistance (E. cloacae; strain HM) was “+ (those with MICs of > 2 µg/ml were resistant)” and the “Colistin MIC” value (E. cloacae; strain HM, resistance mechanism Unknown) was >128 µg/mL. The Colistin resistance (H. alvei [3]; EUCAST breakpoints) was “+ (those with MICs of > 2 µg/ml were resistant)”, the “Colistin MIC” value (H. alvei [3]; resistance mechanism Unknown) was 16 µg/mL and the Colistin resistance (K. oxytoca [4]; EUCAST breakpoints) was “+ (those with MICs of > 2 µg/ml were resistant)”. For the same substance, the “Colistin MIC” value (K. oxytoca [4]; mgrB promotor truncated with ISKpn26-like) was 64 µg/mL, the Colistin resistance (S. marcescens [5]; EUCAST breakpoints) was “+ (those with MICs of > 2 µg/ml were resistant)” and the “Colistin MIC” value (S. marcescens [5]; Natural resistance) was >128 µg/mL. For the same substance, the Colistin resistance (P. mirabilis; EUCAST breakpoints) was “+ (those with MICs of > 2 µg/ml were resistant)”, the “Colistin MIC” value (P. mirabilis; Natural resistance) was >128 µg/mL and the “Results of the method of the invention” value (C. freundii [6]; strain 8 FR) was “-”. The “Results of the method of the invention” value (C. freundii [6]; strain C136) was “-”, the “Results of the method of the invention” value (E. aerogenes [7]) was “-” and the “Results of the method of the invention” value (H. alvei [8]) was “+”. The “Results of the method of the invention” value (K. oxytoca [9]) was “+” and the “Results of the method of the invention” value (S. marcescens [10]) was “+”.

Source: patent EP3070175A1, “TEST FOR DETERMINING SUSCEPTIBILITY OR RESISTANCE TO POLYMYXINS IN ENTEROBACTERIACEAE” (Université de Fribourg, priority 2015, dated 2016)
